Test results from the supplement of paper PMC4932681.
Counter-ions that a name gives are not always drawn.

Assays:
ZR-75-1 Tam2 [1] = assay: drug sensitivity score (DSS) (DSS (dimensionless)); higher = more sensitive; extreme values may be limits of the assay; details: 4-OH-tamoxifen in medium 1 µM; 72 h
Summary of the method: (§1)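 Breast cancer cell lines and their resistant derivatives were seeded into 384-well plates containing library drugs at five concentrations across a 10 000-fold range, with resistant lines kept in medium with 1 μM of the selecting drug. After 72 h at 37 °C, CellTiter-Glo viability was read on a PHERAstar and normalised to vehicle-only and positive controls. Logistic dose–response fits in the Breeze pipeline gave drug sensitivity score, relative IC50 (curve midpoint) and top-dose inhibition.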

T-47D Tam1 [2] = assay: as above; details: 4-OH-tamoxifen in medium 1 µM; 72 h
Summary of the method: as §1

MCF-7 [3] = assay: as above; details: 72 h
Summary of the method: as §1

BT-474 Tam1 [4] = assay: as above; details: 4-OH-tamoxifen in medium 1 µM; 72 h
Summary of the method: as §1

BT-474 [5] = assay: as above; details: 72 h
Summary of the method: as §1

ZR-75-1 Tam1 [6] = assay: as above; details: 4-OH-tamoxifen in medium 1 µM; 72 h
Summary of the method: as §1

BT-474 Tam2 [7] = assay: as above; details: 4-OH-tamoxifen in medium 1 µM; 72 h
Summary of the method: as §1

T-47D [8] = assay: as above; details: 72 h
Summary of the method: as §1

ZR-75-1 [9] = assay: as above; details: 72 h
Summary of the method: as §1

MCF-7 Tam1 [10] = assay: as above; details: 4-OH-tamoxifen in medium 1 µM; 72 h
Summary of the method: as §1

T-47D Tam2 [11] = assay: as above; details: 4-OH-tamoxifen in medium 1 µM; 72 h
Summary of the method: as §1

ZR-75-1 Tam2 [12] = assay: relative IC50 (midpoint of fitted logistic curve, plateau may be below 50% inhibition; CellTiter-Glo viability); higher = less potent; details: 4-OH-tamoxifen in medium 1 µM; 72 h
Summary of the method: as §1

T-47D Tam1 [13] = assay: as above; details: 4-OH-tamoxifen in medium 1 µM; 72 h
Summary of the method: as §1

MCF-7 [14] = assay: as above; details: 72 h
Summary of the method: as §1

BT-474 Tam1 [15] = assay: as above; details: 4-OH-tamoxifen in medium 1 µM; 72 h
Summary of the method: as §1

BT-474 [16] = assay: as above; details: 72 h
Summary of the method: as §1

BT-474 Tam2 [17] = assay: as above; details: 4-OH-tamoxifen in medium 1 µM; 72 h
Summary of the method: as §1

ZR-75-1 [18] = assay: as above; details: 72 h
Summary of the method: as §1

MCF-7 Tam1 [19] = assay: as above; details: 4-OH-tamoxifen in medium 1 µM; 72 h
Summary of the method: as §1

T-47D Tam2 [20] = assay: as above; details: 4-OH-tamoxifen in medium 1 µM; 72 h
Summary of the method: as §1

T-47D [21] = assay: as above; details: 72 h
Summary of the method: as §1

ZR-75-1 Tam1 [22] = assay: as above; details: 4-OH-tamoxifen in medium 1 µM; 72 h
Summary of the method: as §1

Structure (SMILES) | drug sensitivity score (ZR-75-1 Tam2 [1]) | drug sensitivity score (T-47D Tam1 [2]) | drug sensitivity score (MCF-7 [3]; 4-OH-tamoxifen in medium 0 µM) | drug sensitivity score (MCF-7 [3]; 4-OH-tamoxifen in medium 1 µM) | drug sensitivity score (BT-474 Tam1 [4]) | drug sensitivity score (BT-474 [5]; 4-OH-tamoxifen in medium 0 µM) | drug sensitivity score (BT-474 [5]; 4-OH-tamoxifen in medium 1 µM) | drug sensitivity score (ZR-75-1 Tam1 [6]) | drug sensitivity score (BT-474 Tam2 [7]) | drug sensitivity score (T-47D [8]; 4-OH-tamoxifen in medium 0 µM) | drug sensitivity score (T-47D [8]; 4-OH-tamoxifen in medium 1 µM) | drug sensitivity score (ZR-75-1 [9]; 4-OH-tamoxifen in medium 0 µM) | drug sensitivity score (ZR-75-1 [9]; 4-OH-tamoxifen in medium 1 µM) | drug sensitivity score (MCF-7 Tam1 [10]) | drug sensitivity score (T-47D Tam2 [11]) | relative IC50 (ZR-75-1 Tam2 [12]) [µM] | relative IC50 (T-47D Tam1 [13]) [µM] | relative IC50 (MCF-7 [14]; 4-OH-tamoxifen in medium 1 µM) [µM] | relative IC50 (BT-474 Tam1 [15]) [µM] | relative IC50 (BT-474 [16]; 4-OH-tamoxifen in medium 0 µM) [µM] | relative IC50 (BT-474 [16]; 4-OH-tamoxifen in medium 1 µM) [µM] | relative IC50 (BT-474 Tam2 [17]) [µM] | relative IC50 (ZR-75-1 [18]; 4-OH-tamoxifen in medium 1 µM) [µM] | relative IC50 (MCF-7 Tam1 [19]) [µM] | relative IC50 (T-47D Tam2 [20]) [µM] | relative IC50 (MCF-7 [14]; 4-OH-tamoxifen in medium 0 µM) [µM] | relative IC50 (T-47D [21]; 4-OH-tamoxifen in medium 0 µM) [µM] | relative IC50 (T-47D [21]; 4-OH-tamoxifen in medium 1 µM) [µM] | relative IC50 (ZR-75-1 [18]; 4-OH-tamoxifen in medium 0 µM) [µM] | relative IC50 (ZR-75-1 Tam1 [22]) [µM]
CCN(CC)CCOc1ccc(C(=C(Cl)c2ccccc2)c2ccccc2)cc1 [Clomifene citrate] | 2.03 | 3.26 | 0 | 6.09 | 5.39 | 4.53 | 5.95 | 1.02 | 8.36 | 0.434 | 1.21 | 0.493 | 1.42 | 3.09 | 2.56 | 3.33 | 1.83 | 2.36 | 2.8 | 3.34 | 2.38 | 1.79 | 3.81 | 3.2 | 3.17 |  |  |  |  | 
Nc1ccn([C@@H]2O[C@H](CO)[C@@H](O)[C@@H]2O)c(=O)n1 [Cytarabine] | 2.46 | 4.13 | 4.84 | 1.56 | 0 | 0 | 0 | 1.96 | 0 | 2.75 | 0 | 3.25 | 0.265 | 0 | 0 |  | 0.58 |  | > 10 | > 10 | > 10 | > 10 |  | > 10 | > 10 | 0.435 | 1.94 | > 10 | 1.5 | 
N#CCNC(=O)c1ccc(-c2ccnc(Nc3ccc(N4CCOCC4)cc3)n2)cc1 [Momelotinib (CYT-387)] | 0 | 5.08 | 1.83 | 4.64 | 1.15 | 0 | 0 | 0 | 0.414 | 0.52 | 0 | 0 | 0.68 | 3.23 | 1.42 |  | 0.346 | 2.52 | 5.2 | > 10 | > 10 |  |  | 2.03 | 4.18 | 4.2 |  | > 10 | > 10 | > 10
COCC1(CO)C(=O)C2CCN1CC2 (stereo not given) [Prima-1 Met] | 0.24 | 0 | 0.0674 | 0 | 0 | 0 | 0 | 0 | 0 | 0 | 0 | 0 | 0 | 0 | 0 |  | > 10 | > 10 | > 10 | > 10 | > 10 | > 10 | > 10 | > 10 | > 10 |  | > 10 | > 10 | > 10 | > 10
